According to patent publication US10053458B2, “Pyrimidine-2,4-diamine derivative and anticancer pharmaceutical composition comprising same as effective ingredient” (KOREA RESEARCH INSTITUTE OF CHEMICAL TECHNOLOGY, priority 2014, dated 2018):
Where two headings read alike, the source gives them in different places.

Experiments:
H2228 = experiment: Cancer cell proliferation inhibition (SRB/MTS), H2228; conditions: read-out: H2228 GI50
Description: (§1) Cancer cell lines used in the experiments were all human-derived cancer cell lines, specifically H2228 and H3122, which are non-small cell lung cancer cell lines.
(§2) The cancer cell proliferation inhibition was measured using the MTS assay as follows. […] Each culture medium was placed in an incubator for 4 hours, taken out and left at room temperature for 10 minutes.

BaF3 EML4-ALK WT cells [1] = conditions: mouse, 3 days
H3122 = experiment: Cancer cell proliferation inhibition (SRB/MTS), H3122; conditions: read-out: H3122 GI50
Description: as §1, §2

ALK wt. = ALK wt. (Homo sapiens (Human), UniProt Q9UM73); experiment: ALK enzyme inhibitory activity (HTRF kinase assay), ALK wt.; conditions: read-out: ALK wt. IC50, enzyme level
Chain of ALK wt. (Q9UM73 19-1620): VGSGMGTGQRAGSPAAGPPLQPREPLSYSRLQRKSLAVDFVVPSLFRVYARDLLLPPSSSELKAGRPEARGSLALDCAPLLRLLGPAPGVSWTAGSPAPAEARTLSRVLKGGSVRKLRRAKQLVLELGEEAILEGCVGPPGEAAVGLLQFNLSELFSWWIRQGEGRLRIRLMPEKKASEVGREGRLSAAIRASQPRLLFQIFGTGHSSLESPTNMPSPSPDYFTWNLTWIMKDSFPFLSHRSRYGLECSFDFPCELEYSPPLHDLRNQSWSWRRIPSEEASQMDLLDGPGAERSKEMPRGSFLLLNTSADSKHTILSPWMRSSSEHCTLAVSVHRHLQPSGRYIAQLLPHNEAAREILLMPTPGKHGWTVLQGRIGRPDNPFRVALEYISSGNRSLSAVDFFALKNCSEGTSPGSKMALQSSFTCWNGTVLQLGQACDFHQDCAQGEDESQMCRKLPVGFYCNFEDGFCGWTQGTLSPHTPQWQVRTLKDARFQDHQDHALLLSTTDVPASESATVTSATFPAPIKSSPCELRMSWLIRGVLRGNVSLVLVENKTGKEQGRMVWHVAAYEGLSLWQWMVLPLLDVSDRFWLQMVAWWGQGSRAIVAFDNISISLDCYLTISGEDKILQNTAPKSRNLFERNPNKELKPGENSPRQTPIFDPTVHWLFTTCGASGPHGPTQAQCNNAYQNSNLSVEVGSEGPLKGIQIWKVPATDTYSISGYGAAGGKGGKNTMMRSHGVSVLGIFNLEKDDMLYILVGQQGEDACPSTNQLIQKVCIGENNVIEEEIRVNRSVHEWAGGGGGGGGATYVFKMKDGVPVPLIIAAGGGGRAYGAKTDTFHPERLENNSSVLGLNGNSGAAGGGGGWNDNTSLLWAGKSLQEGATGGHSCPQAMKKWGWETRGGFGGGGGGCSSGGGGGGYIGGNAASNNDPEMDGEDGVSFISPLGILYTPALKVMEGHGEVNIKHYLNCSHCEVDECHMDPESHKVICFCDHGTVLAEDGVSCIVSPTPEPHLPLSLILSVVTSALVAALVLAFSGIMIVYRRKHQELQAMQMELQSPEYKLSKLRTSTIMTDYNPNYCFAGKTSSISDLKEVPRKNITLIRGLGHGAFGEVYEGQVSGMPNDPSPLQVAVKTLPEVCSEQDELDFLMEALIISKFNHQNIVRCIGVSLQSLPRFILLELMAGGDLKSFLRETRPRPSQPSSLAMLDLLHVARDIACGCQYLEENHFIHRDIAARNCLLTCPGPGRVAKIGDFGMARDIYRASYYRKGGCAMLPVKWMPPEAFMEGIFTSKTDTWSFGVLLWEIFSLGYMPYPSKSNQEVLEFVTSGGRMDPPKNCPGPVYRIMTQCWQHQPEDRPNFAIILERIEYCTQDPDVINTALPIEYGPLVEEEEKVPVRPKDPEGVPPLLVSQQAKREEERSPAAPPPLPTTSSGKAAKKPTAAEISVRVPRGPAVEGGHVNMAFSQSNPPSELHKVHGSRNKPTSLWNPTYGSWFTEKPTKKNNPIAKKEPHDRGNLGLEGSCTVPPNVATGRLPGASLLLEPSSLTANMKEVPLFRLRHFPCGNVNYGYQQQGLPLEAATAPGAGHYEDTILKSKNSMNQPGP

BaF3 EML4-ALK WT cells [2] = experiment: Cytotoxicity on BaF3 cell transfected with EML4-ALK WT (WST-1); conditions: read-out: BaF3 EML4-ALK WT, IC50 of the cytotoxicity
[3] = non-small cell lung cancer cell line, 72 hours

Cc1cc(Nc2ncc(Cl)c(Nc3ccccc3S(=O)(=O)C(C)C)n2)c(OC(C)C)cc1C1CCNCC1 [Comparative Example 2, LDK-378, reference compound]
GI50 (H2228; Homo sapiens, NCI-H2228, 72 h): 25 nM
IC50 (BaF3 EML4-ALK WT cells [1]): 19 nM
GI50 (H3122; Homo sapiens, NCI-H3122, 72 h): 23 nM

COc1cc2c(cc1Nc1ncc(Cl)c(Nc3ccccc3S(=O)(=O)C(C)C)n1)CN(CCO)CC2(C)C [Example 93]
GI50 (H2228; [3]): < 50 nM
IC50 (ALK wt.): < 10 nM
IC50 (BaF3 EML4-ALK WT cells [2]; 3 days, WST-1): < 50 nM
GI50 (H3122; [3]): < 50 nM

COc1cc2c(cc1Nc1ncc(Cl)c(Nc3ccccc3S(=O)(=O)C(C)C)n1)C1(CCCCC1)CN(C(=O)C(F)(F)F)C2 [Example 15, 1-(6-(5-chloro-4-(2-(isopropylsulfonyl)phenylamino)pyrimidin-2-yl)amino-7-methoxy-1H-spiro[cyclohexane-1,4-isoquinoline]-2(3H)-yl)-2,2,2-trifluoroethane-1-one]
GI50 (H2228; Homo sapiens, NCI-H2228, 72 h): < 50 nM
IC50 (BaF3 EML4-ALK WT cells [2]; Ba/F3 EML4-ALK, 72 h): < 50 nM
GI50 (H3122; Homo sapiens, NCI-H3122, 72 h): < 50 nM

COc1cc2c(cc1Nc1ncc(Cl)c(Nc3ccccc3S(=O)(=O)C(C)C)n1)CCCNC2(C)C [Example 104, 5-chloro-N4-(2-(isopropylsulfonyl)phenyl)-N2-(8-methoxy-1,1-dimethyl-2,3,4,5-tetrahydro-1H-benzo[c]azepin-7-yl)pyrimidine-2,4-diamine]
GI50 (H2228; Homo sapiens, NCI-H2228, 72 h): < 50 nM
IC50 (BaF3 EML4-ALK WT cells [2]; Ba/F3 EML4-ALK, 72 h): < 50 nM
GI50 (H3122; Homo sapiens, NCI-H3122, 72 h): < 50 nM
